Data: the NIST ThermoML archive (doi:10.1021/je900596d)
± gives the expanded uncertainty stated by the source.

Settings: Liquid; for mass density: Vibrating tube method; for vapor or sublimation pressure: Closed cell (Static) method

## FC(F)=C(F)C(F)(F)F [hexafluoropropene]
323.37 K, 3190.6 kPa
  mass density: 1208.65 ± 1.2 kg/m3
323.37 K, 3233.2 kPa
  mass density: 1209.26 ± 1.2 kg/m3
323.37 K, 3274 kPa
  mass density: 1209.98 ± 1.2 kg/m3
323.37 K, 3319.3 kPa
  mass density: 1210.67 ± 1.2 kg/m3
323.37 K, 3363.9 kPa
  mass density: 1211.37 ± 1.2 kg/m3
323.37 K, 3409 kPa
  mass density: 1212.2 ± 1.2 kg/m3
323.37 K, 3453.1 kPa
  mass density: 1212.75 ± 1.2 kg/m3
323.37 K, 3494.3 kPa
  mass density: 1213.56 ± 1.2 kg/m3
323.37 K, 3536.1 kPa
  mass density: 1214.13 ± 1.2 kg/m3
323.37 K, 3576.1 kPa
  mass density: 1214.83 ± 1.3 kg/m3
323.37 K, 3614.3 kPa
  mass density: 1215.37 ± 1.2 kg/m3
323.37 K, 3655.5 kPa
  mass density: 1215.99 ± 1.3 kg/m3
323.37 K, 3696.8 kPa
  mass density: 1216.59 ± 1.2 kg/m3
323.37 K, 3734.8 kPa
  mass density: 1217.22 ± 1.2 kg/m3
323.37 K, 3774.4 kPa
  mass density: 1217.9 ± 1.2 kg/m3
323.37 K, 3814.2 kPa
  mass density: 1218.51 ± 1.3 kg/m3
323.37 K, 3853.1 kPa
  mass density: 1219.11 ± 1.2 kg/m3
323.37 K, 3890.4 kPa
  mass density: 1219.71 ± 1.2 kg/m3
323.37 K, 3929.4 kPa
  mass density: 1220.24 ± 1.3 kg/m3
323.37 K, 3968.3 kPa
  mass density: 1220.84 ± 1.3 kg/m3
323.37 K, 4008.7 kPa
  mass density: 1221.41 ± 1.3 kg/m3
323.37 K, 4049.2 kPa
  mass density: 1222.01 ± 1.2 kg/m3
323.37 K, 4086.5 kPa
  mass density: 1222.57 ± 1.3 kg/m3
323.37 K, 4125.9 kPa
  mass density: 1223.19 ± 1.3 kg/m3
323.37 K, 4203.9 kPa
  mass density: 1224.27 ± 1.2 kg/m3
323.37 K, 4242.8 kPa
  mass density: 1224.81 ± 1.3 kg/m3
323.37 K, 4283.2 kPa
  mass density: 1225.52 ± 1.3 kg/m3
323.37 K, 4323.7 kPa
  mass density: 1226 ± 1.3 kg/m3
323.37 K, 4365 kPa
  mass density: 1226.67 ± 1.3 kg/m3
323.37 K, 4405.1 kPa
  mass density: 1227.17 ± 1.3 kg/m3
323.37 K, 4444.7 kPa
  mass density: 1227.66 ± 1.2 kg/m3
323.37 K, 4485 kPa
  mass density: 1228.31 ± 1.3 kg/m3
323.37 K, 4510.8 kPa
  mass density: 1228.65 ± 1.3 kg/m3
323.37 K, 4561.5 kPa
  mass density: 1229.42 ± 1.3 kg/m3
323.37 K, 4618.8 kPa
  mass density: 1230.22 ± 1.3 kg/m3
323.37 K, 4671.5 kPa
  mass density: 1230.85 ± 1.3 kg/m3
323.37 K, 4727.5 kPa
  mass density: 1231.69 ± 1.3 kg/m3
323.37 K, 4782 kPa
  mass density: 1232.28 ± 1.3 kg/m3
323.37 K, 4834 kPa
  mass density: 1233.09 ± 1.3 kg/m3
323.37 K, 4887.1 kPa
  mass density: 1233.93 ± 1.3 kg/m3
323.37 K, 4938.4 kPa
  mass density: 1234.66 ± 1.3 kg/m3
323.37 K, 4991 kPa
  mass density: 1235.13 ± 1.3 kg/m3
323.37 K, 5040.4 kPa
  mass density: 1235.89 ± 1.3 kg/m3
323.37 K, 5097.9 kPa
  mass density: 1236.56 ± 1.3 kg/m3
323.37 K, 5155.7 kPa
  mass density: 1237.37 ± 1.3 kg/m3
323.37 K, 5211.3 kPa
  mass density: 1238.02 ± 1.3 kg/m3
323.37 K, 5267.7 kPa
  mass density: 1238.8 ± 1.3 kg/m3
323.37 K, 5326.8 kPa
  mass density: 1239.64 ± 1.3 kg/m3
323.37 K, 5386 kPa
  mass density: 1240.28 ± 1.3 kg/m3
323.37 K, 5440.9 kPa
  mass density: 1241.12 ± 1.3 kg/m3
323.37 K, 5498.8 kPa
  mass density: 1241.79 ± 1.3 kg/m3
323.37 K, 5518.2 kPa
  mass density: 1242.1 ± 1.3 kg/m3
323.37 K, 5575.5 kPa
  mass density: 1242.7 ± 1.3 kg/m3
323.37 K, 5631.7 kPa
  mass density: 1243.39 ± 1.3 kg/m3
323.37 K, 5693 kPa
  mass density: 1244.16 ± 1.3 kg/m3
323.37 K, 5751.8 kPa
  mass density: 1244.98 ± 1.3 kg/m3
323.37 K, 5808.1 kPa
  mass density: 1245.67 ± 1.3 kg/m3
323.37 K, 5864.8 kPa
  mass density: 1246.37 ± 1.3 kg/m3
323.37 K, 5921.9 kPa
  mass density: 1247.09 ± 1.3 kg/m3
323.37 K, 5977.9 kPa
  mass density: 1247.78 ± 1.3 kg/m3
323.37 K, 6035 kPa
  mass density: 1248.49 ± 1.3 kg/m3
323.37 K, 6091.4 kPa
  mass density: 1249 ± 1.3 kg/m3
323.37 K, 6150.7 kPa
  mass density: 1249.77 ± 1.3 kg/m3
323.37 K, 6208.1 kPa
  mass density: 1250.43 ± 1.3 kg/m3
323.37 K, 6265.4 kPa
  mass density: 1251.23 ± 1.3 kg/m3
323.37 K, 6323.2 kPa
  mass density: 1251.69 ± 1.3 kg/m3
323.37 K, 6380.6 kPa
  mass density: 1252.41 ± 1.3 kg/m3
323.37 K, 6438.3 kPa
  mass density: 1253.13 ± 1.3 kg/m3
323.37 K, 6494.6 kPa
  mass density: 1253.91 ± 1.3 kg/m3
323.37 K, 6551.8 kPa
  mass density: 1254.4 ± 1.3 kg/m3
323.37 K, 6606.9 kPa
  mass density: 1255.07 ± 1.3 kg/m3
323.37 K, 6663.3 kPa
  mass density: 1255.73 ± 1.3 kg/m3
323.37 K, 6721.4 kPa
  mass density: 1256.27 ± 1.3 kg/m3
323.37 K, 6837.9 kPa
  mass density: 1257.77 ± 1.3 kg/m3
323.37 K, 6894.2 kPa
  mass density: 1258.24 ± 1.3 kg/m3
323.37 K, 6952.1 kPa
  mass density: 1259 ± 1.3 kg/m3
323.37 K, 7008.2 kPa
  mass density: 1259.55 ± 1.3 kg/m3
323.37 K, 7067.2 kPa
  mass density: 1260.31 ± 1.3 kg/m3
323.37 K, 7126.4 kPa
  mass density: 1260.79 ± 1.3 kg/m3
323.37 K, 7183.6 kPa
  mass density: 1261.47 ± 1.3 kg/m3
323.37 K, 7241.8 kPa
  mass density: 1262.13 ± 1.3 kg/m3
323.37 K, 7299.5 kPa
  mass density: 1262.75 ± 1.3 kg/m3
323.37 K, 7358.7 kPa
  mass density: 1263.39 ± 1.3 kg/m3
323.37 K, 7415.2 kPa
  mass density: 1263.98 ± 1.3 kg/m3
323.37 K, 7474.7 kPa
  mass density: 1264.58 ± 1.3 kg/m3
323.37 K, 7531.4 kPa
  mass density: 1265.19 ± 1.3 kg/m3
323.37 K, 7588.8 kPa
  mass density: 1265.89 ± 1.3 kg/m3
323.37 K, 7648.3 kPa
  mass density: 1266.42 ± 1.3 kg/m3
323.37 K, 7707.1 kPa
  mass density: 1267.12 ± 1.3 kg/m3
323.37 K, 7764.7 kPa
  mass density: 1267.63 ± 1.3 kg/m3
323.37 K, 7823.9 kPa
  mass density: 1268.27 ± 1.3 kg/m3
323.37 K, 7882.7 kPa
  mass density: 1268.85 ± 1.3 kg/m3
323.37 K, 7940.4 kPa
  mass density: 1269.67 ± 1.3 kg/m3
323.37 K, 7995.5 kPa
  mass density: 1270.08 ± 1.3 kg/m3
323.37 K, 8048 kPa
  mass density: 1270.66 ± 1.3 kg/m3
323.37 K, 8125.8 kPa
  mass density: 1271.24 ± 1.3 kg/m3
323.37 K, 8203.2 kPa
  mass density: 1272.24 ± 1.3 kg/m3
323.37 K, 8277.9 kPa
  mass density: 1272.98 ± 1.3 kg/m3
323.37 K, 8354.3 kPa
  mass density: 1273.75 ± 1.3 kg/m3
323.37 K, 8407.9 kPa
  mass density: 1274.11 ± 1.3 kg/m3
323.37 K, 8486.2 kPa
  mass density: 1275.02 ± 1.3 kg/m3
323.37 K, 8565.3 kPa
  mass density: 1275.71 ± 1.3 kg/m3
323.37 K, 8644.1 kPa
  mass density: 1276.5 ± 1.3 kg/m3
323.37 K, 8721.2 kPa
  mass density: 1277.38 ± 1.3 kg/m3
323.37 K, 8795.7 kPa
  mass density: 1278.02 ± 1.3 kg/m3
323.37 K, 8871.5 kPa
  mass density: 1278.77 ± 1.3 kg/m3
323.37 K, 8923.6 kPa
  mass density: 1279.19 ± 1.3 kg/m3
323.37 K, 9000 kPa
  mass density: 1279.98 ± 1.3 kg/m3
323.37 K, 9075.8 kPa
  mass density: 1280.67 ± 1.3 kg/m3
323.37 K, 9128 kPa
  mass density: 1281.22 ± 1.3 kg/m3
323.37 K, 9181 kPa
  mass density: 1281.6 ± 1.3 kg/m3
323.37 K, 9257 kPa
  mass density: 1282.4 ± 1.3 kg/m3
323.37 K, 9330.9 kPa
  mass density: 1283.02 ± 1.3 kg/m3
323.37 K, 9404.8 kPa
  mass density: 1283.76 ± 1.3 kg/m3
323.37 K, 9479.6 kPa
  mass density: 1284.46 ± 1.3 kg/m3
323.37 K, 9533 kPa
  mass density: 1284.99 ± 1.3 kg/m3
323.37 K, 9609.3 kPa
  mass density: 1285.65 ± 1.3 kg/m3
323.37 K, 9682.9 kPa
  mass density: 1286.27 ± 1.3 kg/m3
323.37 K, 9757.3 kPa
  mass density: 1287.03 ± 1.3 kg/m3
323.37 K, 9833.2 kPa
  mass density: 1287.72 ± 1.3 kg/m3
323.37 K, 9909.3 kPa
  mass density: 1288.32 ± 1.3 kg/m3
323.37 K, 9986.3 kPa
  mass density: 1289.02 ± 1.3 kg/m3
328.21 K
  vapor or sublimation pressure: 1595.1 ± 2.9 kPa
333.21 K
  vapor or sublimation pressure: 1791.4 ± 3.2 kPa
338.18 K
  vapor or sublimation pressure: 2007.9 ± 3.6 kPa
343.18 K, 2257.1 kPa
  mass density: 1022.11 ± 1.1 kg/m3
343.18 K, 2260.4 kPa
  mass density: 1022.55 ± 1.1 kg/m3
343.18 K, 2263.3 kPa
  mass density: 1022.75 ± 1.1 kg/m3
343.18 K, 2269.6 kPa
  mass density: 1023.31 ± 1.1 kg/m3
343.18 K, 2279.2 kPa
  mass density: 1024.07 ± 1.1 kg/m3
343.18 K, 2287.2 kPa
  mass density: 1024.5 ± 1.1 kg/m3
343.18 K, 2297 kPa
  mass density: 1025.46 ± 1.1 kg/m3
343.18 K, 2306 kPa
  mass density: 1025.93 ± 1.1 kg/m3
343.18 K, 2314 kPa
  mass density: 1026.5 ± 1.1 kg/m3
